We go through 17 molecules from patent US7402560B2, “NCAM binding compounds” (priority 1998, dated 2008).

Entries after “also recorded” stand apart in the source; their conditions may differ. No end group written: not given here.

For one assay, the system named is hippocampal neurons. In words: Neurite outgrowth from hippocampal neurons, stereological total neurite length per cell (ProcessLength). The conditions noted are these: for neurite outgrowth (total neurite length per cell): low density culture.
Assay [1] has as its system primary hippocampal neurones. Put plainly: Neurite outgrowth from single primary hippocampal neurones (length of longest neurite, image analysis). Format: cell-based, rat. The conditions noted are these: for neurite outgrowth: substrate of plastic or fibronectin, 21 h.
Method: The system allows the examination of cell adhesion, cell migration and formation of processes in the treated cells leading to possibly neurite outgrowth. To investigate the latter further, neurite extension from single neurones may be studied. Cells are prepared as in the aggregation study and seeded on a substrate of plastic or fibronectin. The cells are then maintained for a suitable time, whereafter the neurite outgrowth is analysed by a measurement of the neurite extension, for example by a computer-assisted image analysis program. The mean length of the longest neurite of each cell was measured for neurites longer than 10 μM (see FIG. 2). In addition, the mean number of branchpoints per neurite and the mean number of neurites per cell were determined. NCAM Ig1-Ig2 ligands to be tested are added immediately before seeding the cells.
5000 cells/well, corresponding to approximately 4000 cells/cm^2, were seeded in 8 well LabTek Tissue Culture Chamber Slides with a growth surface of Permanox plastic (NUNC A/S, Denmark) or fibronectin (cocultures) and maintained for 20 h as described in Example 7 (1).
To investigate the stimulatory effect on neurite extension, cells were prepared as described and seeded on a substrate of plastic or fibronectin. Cells were then maintained for 21 h and neurite outgrowth was analysed by computer-assisted image analysis using the program Linelength. The mean length of the longest neurite of each cell was measured for neurites longer than 10 μM. In addition, the mean number of branchpoints per neurite and the mean number of neurites per cell were determined.
The next assay has as its target T1, NCAM Ig1 domain (Rattus norvegicus, UniProt P13596).
T1 construct: encoding amino acids 1-97 of rat NCAM; made in house; host or cells: Pichia pastoris strain His 4 GS-115 (pHIL-S1 plasmid)
In words: Plasmon surface resonance analysis of binding to NCAM Ig1. The following applies: dendrimer peptides immobilised on sensor chip CM5, Ig1 in solution, 25° C. How it is done: Real-time biomolecular interaction analysis was performed using a BIAlite instrument (Pharmacia Biosensor AB, Sweden). […] Binding of Ig1 to dendrimer peptides: […] of Ig1 or Ig1I at the indicated concentrations were applied. The chip was regenerated by two […] pulses of 5 mM NaOH. Two independent experiments were performed.

A further assay relates to hippocampal cells. In words: Aggregate cultures of dissociated hippocampal cells (NCAM mediated cell adhesion). The conditions noted are these: for aggregation of cells (number of cell aggregates): 24 h after seeding, higher number of aggregates reflects inhibition of aggregation; for inhibitory effect on aggregation of hippocampal cells: peptides at 180 μM (FIG. 19).
Assay [2] concerns primary hippocampal neurones on monolayers of fibroblasts. In words: Neurite outgrowth in cocultures of neurones on fibroblast monolayers with or without NCAM-140. It is filed as cell-based, rat. The following applies: 0.54 or 5.4 μM. The procedure:
For cocultures, neurones were seeded on monolayers of fibroblasts, either L-cells or 3T3 cells with or without NCAM-B expression. Neurones were visualised using immunohistochemical staining for growth associated protein 43 kD (GAP43). Briefly, cells were fixed 30 min in 4% paraformaldehyde in phosphate buffered saline (PBS). The primary antibody was rabbit anti-GAP43 1:100 in PBS with 1% fetal bovine serum(FBS), 0.1% bovine serum albumin (BSA), 50 mM glycine, 0.02% NaN3, 2% saponine 1 h at room temperature or overnight at 4° C. The second antibody was biotinylated swine-anti-rabbit immunoglobulins 1:100 in PBS with 1% BSA 1 h at room temperature. The third “layer” was streptavidine coupled to FITC or horse radish peroxidase (HRP) 1:100 1 h at room temperature. Between layers, washings were performed 3×20 min in PBS with 1% BSA. Images of living or stained neurones were captured and analysed by the image analysis program Line Length created at the Protein Laboratory. Putative axons were identified as the longest neurite of each cell. Only neurites longer than […] were considered.
The mean length of neurites on NCAM-expressing fibroblasts was longer than the mean length of neurites on fibroblasts without NCAM expression.

Assay [3] deals with primary hippocampal neurones. In words: Cell proliferation by BrdU incorporation ELISA. Format: cell-based. How it is done:
(§1) Cell proliferation was determined by incorporation of 5-bromo-2′-deoxyuridin in a cell proliferation ELISA system (Amersham Life Science) according to the procedure of the manufacturer. Primary hippocampal neurones were seeded in microtiter plates at a density of 33000 cells per well. […] However, the net effect on proliferation depended on the growth status of cell. […] The net effect depends on the growth status of the cells but under the proper circumstances, a stimulation of proliferation will result.
In general terms: Uptake of a labelled nucleoside into DNA is a usual measure of proliferation.

In another assay the test system is neuroblastoma cells. Put plainly: Proliferation of neuroblastoma cells. Format: cell-based.
The test system of the next assay is PC12 cells. Put plainly: Proliferation and neurite outgrowth of PC12 cells. Format: cell-based, rat. The procedure:
The effect of the ligands on proliferation and cell growth was also tested. […] After this initial promotion of proliferation, the peptides stimulate differentiation by increasing neurite outgrowth and at the same time suppressing proliferation. Thus the net effect on proliferation depends on the growth status of the cells. An effect on proliferation has been shown for primary cell cultures from the hippocampus cells and cultures of rat pheochromocytoma cell line PC12 cells. Accordingly, the ligands stimulate neurite outgrowth from and/or proliferation of NCAM presenting cells.
as §1

For assay [4], the system named is primary hippocampal cells. Put plainly: Cell growth by Cristal Violet staining. It is filed as cell-based. The conditions noted are these: 0.8 μM, 48 h. The procedure:
Cell growth is another way of monitoring proliferation of the cells. Primary hippocampal cells were seeded into 96 well microtiter culture plates (Nunc A/S) at a density of 20.000 or 40.000 per well in defined medium as described above. Cells were grown for 48 h, centrifuged in order to remove medium, fixed in 3.7% formaldehyde in PBS for 15 min and stained with 0.5% Cristal Violet in 20% methanol for 15 min. Stained cells were thoroughly washed with Milli Q purified water, thereafter residual dye was solubilised with 0.1 M sodium citrate in 50% ethanol pH 4.2 and absorbance measured at 550 nm.

The target in a further assay is T2, NCAM (20-208) (Rattus norvegicus, UniProt P13596).
T2 construct: made in house
Put plainly: Gel filtration chromatography of NCAM (20-208) dimer formation. For orientation: Size exclusion chromatography separates by hydrodynamic size, large species first.

`COc1ccc2c(c1)CC[C@@H]1[C@@H]2CC[C@]2(C)[C@@H](NCCCCCCN3C(=O)C=CC3=O)CC[C@@H]12` [U-73122, reference compound]: the “effect on Ig2-peptide induced neurite outgrowth” value in the assay with hippocampal neurons (3.6 μM Ig2-peptide dendrimer, Ig1 25 μM, α-FGFR 1:2000, CHD 200 μM, U-73122 5 μM (FIG. 23)) is reported as “completely abrogated”.

Take `COC(=O)/C=C/c1cc(O)ccc1O` [erbstatin analogue, reference compound]: in [1], the “effect on the stimulatory effect of C3 on neurite extension” value (shortened to “effect on the stimulatory effect of C3”) is “inhibit the stimulatory effect of C3 on neurite extension”.

As to `COc1ccc(CCN(C)CCCC(C#N)(c2ccc(OC)c(OC)c2)C(C)C)cc1OC` (stereo not shown) [verapamil, reference compound], in [1], the “effect on the stimulatory effect of C3” value is given as “inhibit the stimulatory effect of C3 on neurite extension”.

With AKKERQRKDTQ (peptide fragment) [D3], the “binding to the NCAM Ig1 domain” value with NCAM Ig1 domain was “bound the NCAM-Ig1 in solution; also recorded: bind to the NCAM Ig1 domain”. Also, the neurite outgrowth result in assay [1] was “strongly stimulated neurite outgrowth; also recorded: increase in neurite outgrowth”. Further, the “aggregation of cells (number of cell aggregates)” value in the assay with hippocampal cells is listed as “inhibited aggregation of cells; also recorded: higher number of cell aggregates”.

On to ARALNWGAKPK (peptide fragment) [D4], for which the “binding to the NCAM Ig1 domain” value with NCAM Ig1 domain was “bound the NCAM-Ig1 in solution; also recorded: bind to the NCAM Ig1 domain”. The neurite outgrowth entry in assay [1] is recorded as “strongly stimulated neurite outgrowth; also recorded: increase in neurite outgrowth”. Further, in the assay with hippocampal cells, the “aggregation of cells (number of cell aggregates)” value was “inhibited aggregation of cells; also recorded: higher number of cell aggregates”.

On to ASKKPKRNIKA (peptide fragment) [C3], for which the “binding to the NCAM Ig1 domain” value with NCAM Ig1 domain is “bound the NCAM-Ig1 in solution; also recorded: bind to the NCAM Ig1 domain”. In [1], the “concentration of maximal neuritogenic effect” value turned out to be 0.54 µM and the neurite outgrowth result is reported as “strongly stimulated neurite outgrowth; also recorded: increase in neurite outgrowth”. In [1] (0.54 μM), the branching of neurites entry is reported as “strongly stimulated” and the “number of neurites per cell” value is recorded as “strongly stimulated”. Besides, the “length of the longest neurite” value in assay [1] (0.54 μM, plastic (FIG. 11)) was “strongly stimulated”. For the same molecule, in assay [2], the “NCAM-induced increase in neurite length on NCAM-140 expressing fibroblasts (LBN)” value is listed as “no difference between the length of neurites on fibroblasts with or without NCAM expression” and the “neurite extension on fibroblasts without NCAM expression (LVN)” value is listed as “neurite extension was stimulated”. In addition, the proliferation result in assay [3] (higher concentrations, bell-shaped dose-response curve) is given as “inhibited proliferation”. Further, the “proliferation of neuroblastoma cells” value with neuroblastoma cells is recorded as “promoted proliferation”. Also, in the assay with PC12 cells, the “neurite outgrowth of PC12 cells” value is “increased neurite outgrowth” and the “proliferation of PC12 cells” value was “inhibitory effect on proliferation”. The cell growth result in [4] is given as “increase cell growth”. Also, the “aggregation of cells (number of cell aggregates)” value in the assay on hippocampal cells is listed as “inhibited aggregation of cells; also recorded: higher number of cell aggregates”.

Turning to “C3d: Dendrimer of four C3 peptide monomers coupled to a backbone consisting of three lysines (ASKKPKRNIKA; also: dendrimer of four monomers coupled to a backbone of three lysines)”, in [2], the “NCAM-induced increase in neurite length on NCAM-140 expressing fibroblasts (LBN)” value is on record as “inhibited” and the “neurite extension on fibroblasts without NCAM expression (LVN)” value is “stimulated neurite out-growth”. For the same molecule, the “incorporation of BrdU (neuronal proliferation)” value in assay [3] (0.8 μM) was “increased incorporation of BrdU”. For the same molecule, in the assay on hippocampal cells, the “aggregation of cells (number of cell aggregates)” value was “most potent form”. For the same molecule, in the assay with hippocampal cells (24 h in culture, 1.07 μM and 2.15 μM), the “number of aggregates of primary hippocampal neurones” value is “increase in the number of aggregates formed”.

“D3-dendrimer: Four D3 peptide-monomers coupled to a backbone consisting of three lysines (AKKERQRKDTQ; also: dendrimer of four monomers coupled to a backbone of three lysines)”: in the assay on hippocampal cells, the “aggregation of cells (number of cell aggregates)” value is given as “increased the number of aggregates formed”.

Consider “D4-dendrimer: Four D4 peptide-monomers coupled to a backbone consisting of three lysines (ARALNWGAKPK; also: dendrimer of four monomers coupled to a backbone of three lysines)”, for which the “aggregation of cells (number of cell aggregates)” value in the assay on hippocampal cells is on record as “increased the number of aggregates formed”.

Consider GEISVGESKFFL (peptide fragment) [Ig1-p], for which the aggregation of cells entry with hippocampal cells (24 h, 250 μg/ml (FIG. 24)) is reported as “inhibited aggregation of cells”. Also, the neurite outgrowth result with hippocampal neurons (24 h, 5 μg/ml (FIG. 24)) is recorded as “promote neurite outgrowth”.

For the molecule GRILARGEINFK (peptide fragment) [Ig2-p], the “aggregation of cells (number of cell aggregates)” value in the assay with hippocampal cells is “inhibited aggregation of cells”. In addition, the “neurite outgrowth (total neurite length per cell)” value in the assay with hippocampal neurons (24 h) is “strongly stimulated neurite outgrowth”.

For the molecule GSILASGESNFK (peptide fragment) [P2-3S], the “inhibitory effect on aggregation of hippocampal cells” value in the assay on hippocampal cells (24 h) is given as “no inhibitory effect”. For the same molecule, the “neurite outgrowth (total neurite length per cell)” value in the assay on hippocampal neurons (24 h) was “no neuritogenic effect; also recorded: no stimulatory effect”.

Turning to GSILASGSSNFK [P2-4S], the “inhibitory effect on aggregation of hippocampal cells” value in the assay with hippocampal cells (24 h) is “only a slight inhibitory effect”. Moreover, the “neurite outgrowth (total neurite length per cell)” value in the assay on hippocampal neurons (24 h) is “no neuritogenic effect; also recorded: no stimulatory effect”.

Take “omega-conotoxin GVIA [reference compound]”: in [1], the “effect on the stimulatory effect of C3” value is “inhibit the stimulatory effect of C3 on neurite extension”.

For pertussis toxin [reference compound], the “effect on the stimulatory effect of C3” value in assay [1] is reported as “inhibit the stimulatory effect of C3 on neurite extension”.

B1: Ig1-2: Unmutated recombinant double Ig domain (Ig1-Ig2) of NCAM, NCAM (20-208) (protein)
chain: LQVDIVPSQGEISVGESKFFLCQVAGDAKDKDISWFSPNGEKLSPNQQRISVVWNDDDSSTLTIYNANIDDAGIYKCVVTAEDGTQSEATVNVKIFQKLMFKNAPTPQEFKEGEDAVIVCDVVSSLPPTIIWKHKGRDVILKKDVRFIVLSNNYLQIRGIKKTDEGTYRCEGRILARGEINFKDIQVIV
As to B1, the “dimer formation (elution in gel filtration)” value with NCAM (20-208) was “elutes as a dimer”. Also, the “neurite outgrowth (total neurite length per cell)” value in the assay with hippocampal neurons (24 h) is “only slight, if any, effect”.

B2: mutated double domain: NCAM (20-208) double Ig domain with mutations R192A, R196A and E198A (protein)
chain: LQVDIVPSQGEISVGESKFFLCQVAGDAKDKDISWFSPNGEKLSPNQQRISVVWNDDDSSTLTIYNANIDDAGIYKCVVTAEDGTQSEATVNVKIFQKLMFKNAPTPQEFKEGEDAVIVCDVVSSLPPTIIWKHKGRDVILKKDVRFIVLSNNYLQIRGIKKTDEGTYRCEGAILAAGAINFKDIQVIV
With B2, the “neurite outgrowth (total neurite length per cell)” value in the assay on hippocampal neurons (24 h) was “inhibited in a dose dependent manner”.
